Test results from patent US20190374554A1, “USE OF OXYGENATED CHOLESTEROL SULFATES (OCS) TO TREAT INFLAMMATORY SKIN DISEASE AND SKIN LESIONS” (Virginia Commonwealth University, priority 2016, published 2019).
Entries after “also recorded” stand apart in the source; their conditions may differ.

Key:
[1] = First cadaver skin flux study (radiolabelled 25HC3S, diffusion cells, % dose recovered); type: in vitro ADME; details: from comparison of formulations in cadaver skin study
Method: The formulations shown in the below Table 22 were made. Each of the below formulations containing drug included 1 wt % non-radiolabelled 25HC3S since the maximum drug loading achieved in Carbopol based creams or gels was 1 wt %. In positive control C1, 20 wt % DMSO was included in EtOH to achieve 1 wt % drug loading.
The procedure for mixing radiolabelled C^14-25HC3S with each formulation was as follows. Formulation (1 mL of each) was placed into 1 mL vials. To each vial was added 5 μL EtOH containing hot material ([…] radiolabelled 25HC3S). The mixture was mixed using a small plunger for 4 to 5 minutes until uniform.
The above formulations were tested on cadaver skin as follows. Dermatomed cadaver skin was obtained from thigh and abdominal areas. A total of 4 donor skin samples (4 separate experiments) were used in the study. Skin samples were placed on diffusion cells (see below) at least 2 hours prior to dosing. Skin sample integrity was examined by measuring […] water loss (TEWL).
The diffusion cells had 1 cm^2 surface area. Each sample at each testing point had 2-3 replicates.
The dose was 10-25 μL of formulation each containing 0.2-0.5 μCi radioactivity per diffusion cell.
The receptor fluid was 6% PEG 400 in PBS. The receptor fluid flow rate was continuous flow at 4.7 mL/hr.
For dose application, the net amount was determined by weight difference before and after dosing application.
The total skin exposure time was 24 hours. After 8 hours of skin exposure, skin surface dose residues were removed by 5% soap-water washing as follows: (1) two times with small cotton balls wetted with 5% clear Ivory® liquid soap (Proctor and Gamble); and (2) two times with cotton balls wetted with distilled de-ionized water to recover the residual drug content, and a final drying with a dry cotton ball. After 16 hours of additional skin exposure (after skin washing), the experiment was finished.
The dosed skin was first tape stripped 10 times followed with heat separation of viable epidermis and dermis. Receptor fluid samples were collected at 30 min, 1 hour, 2 hour, and every 2 hours until the end of the experiment. All samples were counted for radioactivity

chronic dermatitis = assay: Case report: topical therapy of chronic dermatitis following poison ivy attack; type: in vivo, Human; details: one person, topical once every three days, three applications
Method: A case report: A volunteer had been suffering from chronic dermatitis with intense itching following a poison ivy attack two years earlier. The affected area was externally treated with 0.5 ml of 5 mg/ml of 25HC3S sodium salt in a body lotion (Cococare®, Vitamin E Cream) once every three days for a total of three applications.

Compound | trend as permeation enhancer (PE) [1] | itching, redness and swelling (chronic dermatitis; 0.5 ml of 5 mg/ml in body lotion (Cococare Vitamin E Cream)) | skin recovery (chronic dermatitis; 0.5 ml of 5 mg/ml in body lotion)
CCO [EtOH, ethanol] | high PE; also recorded: great permeation enhancer | – | –
CCCCCCCCCCCCOC(=O)C(C)O (stereo not drawn) [LL, Lauryl lactate] | may be more effective than PG | – | –
CC(O)CO (stereo not drawn) [PG, propylene glycol] | may be about the same as OA; also recorded: good permeation enhancer | – | –
C[C@H](CCCC(C)(C)O)[C@H]1CC[C@H]2[C@@H]3CC=C4CC(OS(=O)(=O)[O-])CC[C@]4(C)[C@H]3CC[C@]12C.[Na+] (stereo partly drawn) [25HC3S sodium salt, 5-cholesten-3, 25-diol, 3-sulfate] | – | Within two days, the itching subsided, and redness and swelling decreased | almost completely recovered in 10 days
PEG 400 | poor permeation enhancer | – | –
